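Each compound was tested at five concentrations against cells in 96-well plates for 48 hours. GI50 is the concentration that inhibits growth by half. TGI is the concentration that stops growth completely.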
Experiments:
Assay in all cases: inhibition of tumour cell growth, NCI panel, 48 h
[1] = test system: OVCAR-8 ovarian
[2] = test system: MDA-MB-435
[3] = test system: MCF7 breast
[4] = test system: M14 melanoma
[5] = test system: RXF 393 renal
[6] = test system: EKVX NSCLC
[7] = test system: MALME-3M melanoma
[8] = test system: NCI-H226 lung
[9] = test system: NCI-H460 lung
[10] = test system: UACC-62 melanoma
[11] = test system: SNB-75 CNS
[12] = test system: NCI-H522 lung
[13] = test system: K-562 leukemia
[14] = test system: 786-0 renal
[15] = test system: MDA-MB-468 breast
[16] = test system: HT29 colon
[17] = test system: HCT-116 colon
[18] = test system: DU-145 prostate
[19] = test system: HCT-15 colon
[20] = test system: SK-MEL-28 melanoma
[21] = test system: PC-3 prostate
[22] = test system: SK-MEL-2 melanoma
[23] = test system: SR leukemia
[24] = test system: SF-295 CNS
[25] = test system: MOLT-4 leukemia
[26] = test system: U251 CNS
[27] = test system: KM12 colon
[28] = test system: SF-268 CNS
[29] = test system: COLO 205 colon
[30] = test system: CAKI-1 renal
[31] = test system: UO-31 renal
[32] = test system: HS 578T breast
[33] = test system: A498 renal
[34] = test system: CCRF-CEM leukemia
[35] = test system: MDA-MB-231 breast
[36] = test system: A549 NSCLC
[37] = test system: UACC-257 melanoma
[38] = test system: SNB-19 CNS
[39] = test system: HOP-92 NSCLC
[40] = test system: OVCAR-3 ovarian
[41] = test system: NCI-H23 lung
[42] = test system: LOX IMVI melanoma
[43] = test system: TK-10 renal
[44] = test system: T-47D breast
[45] = test system: ACHN renal
[46] = test system: RPMI-8226 leukemia
[47] = test system: IGROV1 ovarian
[48] = test system: HOP-62 NSCLC
[49] = test system: HCC-2998 colon
[50] = test system: SK-OV-3 ovarian
[51] = test system: OVCAR-4 ovarian
[52] = test system: SF-539 CNS
[53] = test system: SN12C renal
[54] = test system: SK-MEL-5 melanoma
[55] = test system: SW-620 colon
[56] = test system: HL-60(TB) leukemia
[57] = test system: OVCAR-5 ovarian
[58] = test system: BT-549 breast

SMILES: COc1ccccc1[C@H]1C(C(=O)c2ccc(O)cc2)C2(N[C@@H]1c1ccccc1)C(=O)Nc1ccc(Br)cc12 (stereo partly specified)
- GI50 [1]: 8.3 µM
- TGI [1]: 16.7 µM
- GI50 [2]: 7.39 µM
- TGI [2]: 15.1 µM
- GI50 [3]: 6.66 µM
- TGI [3]: 19.1 µM
- GI50 [4]: 7.35 µM
- TGI [4]: 15.4 µM
- GI50 [5]: 5.63 µM
- TGI [5]: 13.8 µM
- GI50 [6]: 7.61 µM
- TGI [6]: 16.5 µM
- GI50 [7]: 8.42 µM
- TGI [7]: 16.1 µM
- GI50 [8]: 5.1 µM
- TGI [8]: 14.9 µM
- GI50 [9]: 6.91 µM
- TGI [9]: 15 µM
- GI50 [10]: 7.15 µM
- TGI [10]: 14.2 µM
- GI50 [11]: 5.98 µM
- TGI [11]: 13.6 µM
- GI50 [12]: 2.77 µM
- TGI [12]: 10.4 µM
- GI50 [13]: 10.7 µM
- TGI [13]: 43.1 µM
- GI50 [14]: 8.4 µM
- TGI [14]: 16.2 µM
- GI50 [15]: 2.22 µM
- TGI [15]: 8.66 µM
- GI50 [16]: 7.91 µM
- TGI [16]: 17.6 µM
- GI50 [17]: 7.03 µM
- TGI [17]: 15.4 µM
- GI50 [18]: 9.39 µM
- TGI [18]: 18 µM
- GI50 [19]: 8.02 µM
- TGI [19]: 18.1 µM
- GI50 [20]: 8.02 µM
- TGI [20]: 15.4 µM
- GI50 [21]: 4.08 µM
- TGI [21]: 13.9 µM
- GI50 [22]: 8.01 µM
- TGI [22]: 15.8 µM
- GI50 [23]: 5.57 µM
- TGI [23]: 18.4 µM
- GI50 [24]: 6.63 µM
- TGI [24]: 14.1 µM
- GI50 [25]: 4.42 µM
- TGI [25]: 23.2 µM
- GI50 [26]: 6.62 µM
- TGI [26]: 13.9 µM
- GI50 [27]: 7.73 µM
- TGI [27]: 16.9 µM
- GI50 [28]: 7.05 µM
- TGI [28]: 17.1 µM
- GI50 [29]: 8.67 µM
- TGI [29]: 18.2 µM
- GI50 [30]: 2.94 µM
- TGI [30]: 10.7 µM
- GI50 [31]: 6.07 µM
- TGI [31]: 12.8 µM
- GI50 [32]: 8.2 µM
- TGI [32]: 23.2 µM
- GI50 [33]: 7.26 µM
- TGI [33]: 15 µM
- GI50 [34]: 7.57 µM
- TGI [34]: 24.4 µM
- GI50 [35]: 6.39 µM
- TGI [35]: 13.3 µM
- GI50 [36]: 6.04 µM
- TGI [36]: 13.6 µM
- GI50 [37]: 7.81 µM
- TGI [37]: 15.5 µM
- GI50 [38]: 7.62 µM
- TGI [38]: 14.8 µM
- GI50 [39]: 6.52 µM
- TGI [39]: 14.7 µM
- GI50 [40]: 5.35 µM
- TGI [40]: 12.4 µM
- GI50 [41]: 8.25 µM
- TGI [41]: 16.7 µM
- GI50 [42]: 7.63 µM
- TGI [42]: 18.8 µM
- GI50 [43]: 7.34 µM
- TGI [43]: 15.2 µM
- GI50 [44]: 6.67 µM
- TGI [44]: 16.6 µM
- GI50 [45]: 7.72 µM
- TGI [45]: 15 µM
- GI50 [46]: 8.42 µM
- TGI [46]: 47.7 µM
- GI50 [47]: 4.56 µM
- TGI [47]: 11.8 µM
- GI50 [48]: 8.27 µM
- TGI [48]: 16.7 µM
- GI50 [49]: 6.55 µM
- TGI [49]: 14 µM
- GI50 [50]: 8.08 µM
- TGI [50]: 16.3 µM
- GI50 [51]: 7.19 µM
- TGI [51]: 16.4 µM
- GI50 [52]: 8.07 µM
- TGI [52]: 15.4 µM
- GI50 [53]: 2.65 µM
- TGI [53]: 9.49 µM
- GI50 [54]: 9.09 µM
- TGI [54]: 17.1 µM
- GI50 [55]: 8.34 µM
- TGI [55]: 16.8 µM
- GI50 [56]: 12.2 µM
- TGI [56]: 39.3 µM
- GI50 [57]: 7.47 µM
- TGI [57]: 14.7 µM
- GI50 [58]: 6.03 µM
- TGI [58]: 13.4 µM
